Measurements reported in US12202815B2, “Selective androgen receptor degrader (SARD) ligands and methods of use thereof” (priority 2018, dated 2025).
Where “and” joins values, the source holds several entries; their conditions need not be identical. Identical values can stand only once. Entries after “also recorded” stand apart in the source; their conditions may differ. Like-named read-outs stand apart in the source and are kept apart here.

Legend:
[1] = test system: MDVR (enzalutamide-resistant VCaP prostate cancer cells); assay: MDVR xenograft in SRG rats, 30 days oral dosing; details: rat, in vivo
Protocol: Male Sprague Dawley Rag2−/−; Il2rg−/− (SRG) rats were housed in group of three rats/cage. They were provided with food and water ad libitum and were maintained in a 12 hour light/dark cycle.
Cell inoculations were carried out in a Class II/A2 biosafety cabinet. The surgical space was cleaned with Clidox® and sterile drapes were placed on the surface. The animals were anesthetized using inhaled isoflurane. Prior to injection, the hind flank was shaved and cleaned with alcohol prep pads. Animals were placed back in their home cage and monitored until they recovered and sternal recumbency was observed.
Cell inoculation: All animals were inoculated with a total volume of 500 μL subcutaneously in the left hind flank. The inoculation suspension consisted of 250 μL of cell suspension mixed with 250 μL of Matrigel, diluted to 10 mg/mL working solution with DMEM, which was mixed on ice immediately by pipetting the cells into the Matrigel using a p1000 micropipette fitted with a sterile aerosol resistant tip prior to injection. The final concentration of Matrigel was 5 mg/mL. […] Each needle/syringe was used for only 1 animal.
SARDs were dissolved at 5-, 10-, or 15 mg/mL in vehicle in a biosafety cabinet using sterile reagents and consumables.
One-way ANOVA and Tukey's post-hoc test were used to compare the difference in percent change in body weight among treatment groups. […]

[2] = test system: >160 GPCR's; assay: gpcrMAX panel, PathHunter beta-arrestin antagonist primary screen; assay type: cell-based
Protocol: The assays were performed utilizing the PathHunter beta-arrestin enzyme fragment complementation (EFC) technology.
The PathHunter® β-Arrestin assay monitors the activation of a GPCR in a homogenous, non-imaging assay format using a technology developed by DiscoveRx called Enzyme Fragment Complementation (EFC) with β-galactosidase (β-Gal) as the functional reporter. […] EA is fused to β-Arrestin and ED is fused to the GPCR of interest. When the GPCR is activated and β-Arrestin is recruited to the receptor, ED and EA complementation occurs, restoring β-Gal activity which is measured using chemiluminescent PathHunter® Detection Reagents.
PathHunter cell lines were expanded from freezer. Cells were seeded in a total volume of 20 μL into white walled, 384-well microplates and incubated at 37° C. for the appropriate time prior to testing.
Intermediate dilution of sample stocks was performed to generate 5× sample in assay buffer. […]
Microplates were read following signal generation with a PerkinElmer Envision™ instrument for chemiluminescent signal detection.
Compound activity was analyzed using CBIS data analysis suite (ChemInnovation, CA). For antagonist mode assays, percentage inhibition was calculated using the following formula: % Inhibition=100%×(1−(mean RLU of test sample−mean RLU of vehicle control)/(mean RLU of EC80 control−mean RLU of vehicle control) [where RLU is relative light unit]).

[3] = for Conc. 1065: individual rat serum
[4] = RLM metabolism half-life; assay type: in vitro ADME; details: rat liver microsomes
Protocol: (§1) The assay was done in a final volume of 0.5 ml in duplicates (n=2). […] After pre-incubation, reaction was started by addition of 1 mM NADPH (pre-incubated at 37° C.). Incubations were carried out in triplicate and at various time-points (0, 5, 10, 15, 30 and 60 minutes) 100 μl aliquots were removed and quenched with 100 μl of acetonitrile containing internal standard. Samples were vortex mixed and centrifuged at 4000 rpm for 10 minutes. The supernatants were transferred to 96 well plates and submitted for LC-MS/MS analysis. As control, sample incubations done in absence of NADPH were included. From % PCR (% Parent Compound Remaining), rate of compound disappearance is determined (slope) and in vitro CLint (μl/min/mg protein) was calculated.

[5] = High dose Hershberger experiment, 7 days oral; assay type: in vivo, Sprague Dawley rat; details: for Body wt. on sac. day / Day 0 body wt.: individual animals
Protocol: Body weights were recorded on day 0 and day 7 (Table 4B). On day 7, animals were sacrificed and organs were observed.

[6] = assay type: in vitro ADME; details: human liver microsomes
Protocol: as §1

[7] = Pharmacokinetics in male Sprague Dawley rats (oral 7 days, iv Day 1); details: male, Sprague Dawley, rat, in vivo
Protocol: At initial dosing, the animals were 12 weeks of age. The animals were group housed (up to three animals/cage/group) in polycarbonate cages with hardwood chip bedding. […] Water was provided fresh daily, ad libitum. […] As necessary, the 12-hour dark cycle was interrupted to accommodate study procedures. […] Individual doses were calculated based on body weights recorded on Day 1 and Day 7 of dose administration. […] A single intravenous dose was administered via a tail vein and blood sample on Day 1.
Animals were weighed at the time of animal selection and on Day 1 and Day 7 of dose administration.
Centrifugation began within 1 hour of collection. Plasma was placed into 96-well tubes with barcode labels. Plasma was maintained on dry ice prior to storage at approximately −70° C. Drug concentrations were measured by established chromatography/mass spectrometry (LC-MS/MS) methods.

[8] = in vivo; details: male, Sprague Dawley, rat, 20 mpk
[9] = target: T1, MYLK (Homo sapiens, UniProt Q15746); assay: KINOMEscan competition binding assay; details: lower numbers indicate stronger hits
T1 construct: T7 phage fusion or DNA label for qPCR; purchased DiscoveRx
Protocol: (§2) Screening “hits” are identified by measuring the amount of kinase captured in test versus control samples by using a quantitative, precise and ultra-sensitive qPCR method that detects the associated DNA label.
(§3) For most assays, kinase-tagged T7 phage strains were grown in parallel in 24-well blocks in an E. coli host derived from the BL21 strain. […] The lysates were centrifuged (6,000×g) and filtered (0.2 μm) to remove cell debris. The remaining kinases were produced in HEK-293 cells and subsequently tagged with DNA for qPCR detection. […] The liganded beads were blocked with excess biotin and washed with blocking buffer (SeaBlock (Pierce), 1% BSA, 0.05% Tween 20, 1 mM DTT) to remove unbound ligand and to reduce non-specific phage binding. […] Test compounds were prepared as 40× stocks in 100% DMSO and directly diluted into the assay. All reactions were performed in polypropylene 384-well plates in a final volume of 0.02 ml. […] The kinase concentration in the eluates was measured by qPCR.

[10] = test system: >450 human kinases and mutant variants; assay: KINOMEscan panel cross-reactivity profile; assay type: binding; details: panel of >460 kinases and mutants
Protocol: as §2, §3

[11] = target: T2, GSK3A (Homo sapiens, UniProt P49840); assay: KINOMEscan competition binding assay; details: lower numbers indicate stronger hits
T2 construct: T7 phage fusion or DNA label for qPCR; purchased DiscoveRx
T2 sequence (P49840 whole entry, the tested form may be a part): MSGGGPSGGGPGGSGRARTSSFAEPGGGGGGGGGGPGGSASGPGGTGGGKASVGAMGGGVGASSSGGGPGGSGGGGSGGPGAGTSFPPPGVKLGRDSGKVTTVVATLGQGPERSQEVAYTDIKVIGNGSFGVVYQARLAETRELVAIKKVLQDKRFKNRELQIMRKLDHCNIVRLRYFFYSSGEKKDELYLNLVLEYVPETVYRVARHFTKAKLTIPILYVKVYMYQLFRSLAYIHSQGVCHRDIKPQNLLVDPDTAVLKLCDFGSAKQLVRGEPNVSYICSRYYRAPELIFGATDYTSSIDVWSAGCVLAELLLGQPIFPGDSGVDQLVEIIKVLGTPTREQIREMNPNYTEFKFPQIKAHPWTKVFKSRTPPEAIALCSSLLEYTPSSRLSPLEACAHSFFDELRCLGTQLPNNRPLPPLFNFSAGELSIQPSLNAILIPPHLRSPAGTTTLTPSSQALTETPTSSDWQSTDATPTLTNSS
Protocol: as §2, §3

T1 sequence (Q15746 whole entry, the tested form may be a part): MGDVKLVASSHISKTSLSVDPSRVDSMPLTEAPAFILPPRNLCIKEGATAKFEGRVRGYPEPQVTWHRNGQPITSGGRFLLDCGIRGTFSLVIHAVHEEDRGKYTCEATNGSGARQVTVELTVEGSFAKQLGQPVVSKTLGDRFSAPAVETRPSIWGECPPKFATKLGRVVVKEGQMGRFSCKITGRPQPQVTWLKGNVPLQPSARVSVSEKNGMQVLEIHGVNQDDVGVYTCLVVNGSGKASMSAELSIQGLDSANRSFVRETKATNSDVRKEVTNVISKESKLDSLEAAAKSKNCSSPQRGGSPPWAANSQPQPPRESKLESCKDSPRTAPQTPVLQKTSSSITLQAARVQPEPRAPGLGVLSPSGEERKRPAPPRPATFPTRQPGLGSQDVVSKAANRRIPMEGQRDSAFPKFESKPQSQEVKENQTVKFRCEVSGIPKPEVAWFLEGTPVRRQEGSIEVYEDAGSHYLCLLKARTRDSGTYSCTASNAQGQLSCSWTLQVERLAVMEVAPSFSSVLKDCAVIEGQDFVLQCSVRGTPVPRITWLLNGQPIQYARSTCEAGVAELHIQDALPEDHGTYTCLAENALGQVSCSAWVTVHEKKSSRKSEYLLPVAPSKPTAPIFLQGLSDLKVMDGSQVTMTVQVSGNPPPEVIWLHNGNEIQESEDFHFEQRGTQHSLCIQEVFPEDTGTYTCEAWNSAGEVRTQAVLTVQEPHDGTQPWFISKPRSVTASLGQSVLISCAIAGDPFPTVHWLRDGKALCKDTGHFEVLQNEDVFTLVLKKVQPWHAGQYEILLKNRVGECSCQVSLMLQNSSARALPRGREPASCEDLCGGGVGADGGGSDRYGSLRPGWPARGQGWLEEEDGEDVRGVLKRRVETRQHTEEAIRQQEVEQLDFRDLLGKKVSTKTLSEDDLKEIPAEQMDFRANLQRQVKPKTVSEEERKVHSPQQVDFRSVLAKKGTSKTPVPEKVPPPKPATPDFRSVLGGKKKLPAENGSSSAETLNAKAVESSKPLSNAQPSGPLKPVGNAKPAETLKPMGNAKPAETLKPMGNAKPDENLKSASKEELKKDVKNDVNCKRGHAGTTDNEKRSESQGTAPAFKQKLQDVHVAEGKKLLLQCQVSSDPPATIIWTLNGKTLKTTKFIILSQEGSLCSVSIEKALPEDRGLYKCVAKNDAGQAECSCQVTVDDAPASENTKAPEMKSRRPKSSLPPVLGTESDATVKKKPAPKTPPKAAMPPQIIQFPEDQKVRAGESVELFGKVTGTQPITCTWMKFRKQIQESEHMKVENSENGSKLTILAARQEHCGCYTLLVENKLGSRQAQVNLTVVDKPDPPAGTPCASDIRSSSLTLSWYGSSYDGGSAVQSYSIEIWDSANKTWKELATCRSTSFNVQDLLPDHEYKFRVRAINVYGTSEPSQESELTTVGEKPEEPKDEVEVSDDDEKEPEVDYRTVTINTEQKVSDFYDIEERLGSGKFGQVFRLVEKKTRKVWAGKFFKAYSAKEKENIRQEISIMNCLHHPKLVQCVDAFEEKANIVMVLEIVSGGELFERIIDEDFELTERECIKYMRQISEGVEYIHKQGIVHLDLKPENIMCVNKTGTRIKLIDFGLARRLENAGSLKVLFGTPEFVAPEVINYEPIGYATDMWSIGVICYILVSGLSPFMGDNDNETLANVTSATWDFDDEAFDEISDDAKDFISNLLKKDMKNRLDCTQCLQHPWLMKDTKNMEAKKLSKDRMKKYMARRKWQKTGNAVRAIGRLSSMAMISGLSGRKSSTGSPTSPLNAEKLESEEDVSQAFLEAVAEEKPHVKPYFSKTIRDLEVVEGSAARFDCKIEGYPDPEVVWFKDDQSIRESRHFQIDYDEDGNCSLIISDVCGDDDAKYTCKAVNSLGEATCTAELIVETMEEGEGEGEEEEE

For C[C@](O)(Cn1cc(C#N)cn1)C(=O)Nc1cnc(C#N)c(C(F)(F)F)c1 [Compound 1065, (S)-3-(4-cyano-1H-pyrazol-1-yl)-N-(6-cyano-5-(trifluoromethyl)pyridin-3-yl)-2-hydroxy-2-methylpropanamide], the “potency vs 1002 in inhibiting enzalutamide-resistant prostate cancer (in words)” value [1] was “approximately two fold more potent than 1002”, the “GPCR cross-reactivity (in words)” value [2] was “no GPCR was inhibited by 50%; also recorded: No GPCR was inhibited by >50%” and the “Conc. 1065” value ([3]; 1 mg/kg) was 81.58 nM and 87.25 nM and 120.1244 nM and 134.5505 nM and 129.9323 nM. The “Conc. 1065” value ([3]; 5 mg/kg) was 967.3936 nM and 798.7984 nM and 630.4879 nM and 691.1901 nM and 485.4264 nM, the “Conc. 1065” value ([3]; 10 mg/kg) was 637.641 nM and 915.1312 nM and 824.8076 nM and 681.9936 nM and 795.917 nM and the “Conc. 1065” value ([3]; 20 mg/kg) was 1286.902 nM and 1298.179 nM and 1360.687 nM and 1397.834 nM and 1193.986 nM. The “Serum Conc.” value ([3]; Table 2, rats 20 mg/kg, 24-30 hours after last dose) was 561 nM, the “Serum Conc.” value ([3]; Table 3, 20 mg/kg Hershberger) was 561 nM and the “serum drug level (bioavailability)” value ([3]; rats dosed at 20 mg/kg) was 561 nM. The “RLM Metebolism (H.L. min)” value [4] was 84 min, the “gross pathology (in words)” value ([5]; 100 and 200 mpk, 7 days) was “no gross pathology” and the “Body wt. on sac. day” value ([5]; 100 mpk oral 7 days) was 475 g and 333 g and 292 g. The “Day 0 body wt.” value ([5]; 100 mpk oral 7 days) was 404 g and 280 g and 245 g, the “Body wt. on sac. day” value ([5]; 200 mpk oral 7 days) was 326 g and 313 g and 424 g and the “Day 0 body wt.” value ([5]; 200 mpk oral 7 days) was 270 g (2×) and 440 g. The “HLM Metabolism (H.L. min)” value [6] was “STABLE”, the “HLM % metabolized after 60 min” value ([6]; 60 min) was 0% and the AUC0-24 ([7]; iv, 5 mg/kg) was 31800 ng·h/mL. It also gave an AUC(0-inf) ([7]; iv, 5 mg/kg) of 40700 ng·h/mL, an AUC(0-t) ([7]; iv, 5 mg/kg) of 31800 ng·h/mL and a C0 ([7]; iv, 5 mg/kg) of 2510 ng/mL. For the same molecule, the Cmax ([7]; iv, 5 mg/kg) was 2600 ng/mL, the “DN AUC0-24” value ([7]; iv, 5 mg/kg) was 6360 and the Tmax ([7]; iv, 5 mg/kg) was 0.5 h. For the same molecule, the Vd ([7]; iv, 5 mg/kg) was 1.86 L/kg, the clearance ([7]; iv, 5 mg/kg) was 2.05 mL/min/kg and the half-life ([7]; iv, 5 mg/kg) was 10.5 h. For the same molecule, the AUC(0-t) ([7]; po, 1 mg/kg) was 7300 ng·h/mL, the AUC0-24 ([7]; po, 1 mg/kg/day) was 7300 ng·h/mL and the AUC(0-t) ([7]; po, 1 mg/kg/day) was 7300 ng·h/mL. The Cmax ([7]; po, 1 mg/kg/day) was 458 ng/mL, the “DN AUC0-24” value ([7]; po, 1 mg/kg/day) was 7300 and the Tmax ([7]; po, 1 mg/kg/day) was 6 h. The AUC(0-t) ([7]; po, 5 mg/kg) was about 35000 ng·h/mL, the AUC0-24 ([7]; po, 5 mg/kg/day) was 34900 ng·h/mL and the AUC(0-t) ([7]; po, 5 mg/kg/day) was 34900 ng·h/mL. The Cmax ([7]; po, 5 mg/kg/day) was 2220 ng/mL, the “DN AUC0-24” value ([7]; po, 5 mg/kg/day) was 6980 and the Tmax ([7]; po, 5 mg/kg/day) was 6 h. The AUC0-24 ([7]; po, 10 mg/kg/day) was 59500 ng·h/mL, the AUC(0-t) ([7]; po, 10 mg/kg/day) was 59500 ng·h/mL and the Cmax ([7]; po, 10 mg/kg/day) was 3550 ng/mL. The “DN AUC0-24” value ([7]; po, 10 mg/kg/day) was 5950, the Tmax ([7]; po, 10 mg/kg/day) was 6 h and the AUC(0-t) ([7]; po, 20 mg/kg) was 102000 ng·h/mL. It also gave an AUC0-24 ([7]; po, 20 mg/kg/day) of 102000 ng·h/mL, an AUC(0-t) ([7]; po, 20 mg/kg/day) of 102000 ng·h/mL and a Cmax ([7]; po, 20 mg/kg/day) of 5550 ng/mL. The “DN AUC0-24” value ([7]; po, 20 mg/kg/day) was 5120, the Tmax ([7]; po, 20 mg/kg/day) was 6 h and the concentration at 30 h [8] was 561 nM. The “Percent Control” value [9] was 45%, the “number of kinases bound (<50% of Percent of Control)” value [10] was 2 and the “Percent Control” value [11] was 6.4%.
